According to ChEMBL document CHEMBL1201862, “PubChem BioAssay data set” (2004):
The source made the active and inactive calls. For most assays here, no stated cut-off is given here; in the data, actives have a measured IC50 and inactives only a lower limit.

What was measured:
[1] = target: T1, Ubiquitin-conjugating enzyme E2 N (Homo sapiens, UniProt P61088); format: functional
T1 sequence (P61088 whole entry): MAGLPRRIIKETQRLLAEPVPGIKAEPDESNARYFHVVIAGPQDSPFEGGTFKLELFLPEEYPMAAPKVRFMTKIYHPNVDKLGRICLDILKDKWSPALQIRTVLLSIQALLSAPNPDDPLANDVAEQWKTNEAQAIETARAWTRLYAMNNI

[2] = target: T1, Ubiquitin-conjugating enzyme E2 N; format: functional; remark: listed apart in the source
Vero = assay: cells; format: functional, cell-based; conditions: Chlorocebus sabaeus
[3] = target: Beta-2 adrenergic receptor (Homo sapiens, UniProt P07550); assay: ADRB2 activation measured by internalization – cell-based, FAP fluorogen, flow cytometry, cherry pick 1, dose response (AID 588763); format: functional
[4] = target: T2, Apoptotic protease-activating factor 1 (Homo sapiens, UniProt O14727); format: functional
T2 sequence (O14727 whole entry): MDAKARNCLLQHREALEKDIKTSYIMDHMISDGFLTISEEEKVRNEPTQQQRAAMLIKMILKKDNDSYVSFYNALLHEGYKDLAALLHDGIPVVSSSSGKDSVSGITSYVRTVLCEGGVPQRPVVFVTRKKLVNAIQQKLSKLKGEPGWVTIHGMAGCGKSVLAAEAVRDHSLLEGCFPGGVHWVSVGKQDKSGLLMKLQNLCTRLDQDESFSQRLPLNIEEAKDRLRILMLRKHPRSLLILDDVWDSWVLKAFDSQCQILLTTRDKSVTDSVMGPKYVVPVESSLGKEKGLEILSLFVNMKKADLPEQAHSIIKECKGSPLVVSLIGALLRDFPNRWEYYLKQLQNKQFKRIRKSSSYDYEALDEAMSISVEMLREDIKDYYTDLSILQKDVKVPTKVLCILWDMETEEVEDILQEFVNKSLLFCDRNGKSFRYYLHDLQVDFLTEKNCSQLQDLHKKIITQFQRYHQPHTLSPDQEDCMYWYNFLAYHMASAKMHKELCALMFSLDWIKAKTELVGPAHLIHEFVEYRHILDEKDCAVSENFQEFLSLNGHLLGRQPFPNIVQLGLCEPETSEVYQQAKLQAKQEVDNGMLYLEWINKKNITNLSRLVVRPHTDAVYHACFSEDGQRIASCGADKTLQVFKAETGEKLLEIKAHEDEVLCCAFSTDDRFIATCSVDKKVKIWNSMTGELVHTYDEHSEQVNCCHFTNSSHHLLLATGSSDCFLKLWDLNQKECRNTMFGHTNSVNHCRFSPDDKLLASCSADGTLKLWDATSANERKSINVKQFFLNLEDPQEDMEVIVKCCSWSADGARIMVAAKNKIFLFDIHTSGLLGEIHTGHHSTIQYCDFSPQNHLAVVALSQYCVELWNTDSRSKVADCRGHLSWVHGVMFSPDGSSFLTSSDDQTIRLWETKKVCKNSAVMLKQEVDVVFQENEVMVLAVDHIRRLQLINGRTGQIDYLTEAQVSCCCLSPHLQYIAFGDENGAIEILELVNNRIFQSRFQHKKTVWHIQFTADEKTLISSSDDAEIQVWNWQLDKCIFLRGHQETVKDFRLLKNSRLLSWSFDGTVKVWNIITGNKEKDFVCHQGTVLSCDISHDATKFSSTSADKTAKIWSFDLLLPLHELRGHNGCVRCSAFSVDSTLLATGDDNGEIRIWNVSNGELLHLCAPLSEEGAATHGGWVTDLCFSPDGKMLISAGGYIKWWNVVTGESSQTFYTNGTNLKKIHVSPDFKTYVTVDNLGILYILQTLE

[5] = target: T3, DNA repair and recombination protein RAD54-like (Homo sapiens, UniProt Q92698); assay: RAD54 Holliday junction migration blockers – biochemical, fluorescence, cherry-picked samples, dose series, confirmation (AID 651657); format: functional
T3 sequence (Q92698 whole entry): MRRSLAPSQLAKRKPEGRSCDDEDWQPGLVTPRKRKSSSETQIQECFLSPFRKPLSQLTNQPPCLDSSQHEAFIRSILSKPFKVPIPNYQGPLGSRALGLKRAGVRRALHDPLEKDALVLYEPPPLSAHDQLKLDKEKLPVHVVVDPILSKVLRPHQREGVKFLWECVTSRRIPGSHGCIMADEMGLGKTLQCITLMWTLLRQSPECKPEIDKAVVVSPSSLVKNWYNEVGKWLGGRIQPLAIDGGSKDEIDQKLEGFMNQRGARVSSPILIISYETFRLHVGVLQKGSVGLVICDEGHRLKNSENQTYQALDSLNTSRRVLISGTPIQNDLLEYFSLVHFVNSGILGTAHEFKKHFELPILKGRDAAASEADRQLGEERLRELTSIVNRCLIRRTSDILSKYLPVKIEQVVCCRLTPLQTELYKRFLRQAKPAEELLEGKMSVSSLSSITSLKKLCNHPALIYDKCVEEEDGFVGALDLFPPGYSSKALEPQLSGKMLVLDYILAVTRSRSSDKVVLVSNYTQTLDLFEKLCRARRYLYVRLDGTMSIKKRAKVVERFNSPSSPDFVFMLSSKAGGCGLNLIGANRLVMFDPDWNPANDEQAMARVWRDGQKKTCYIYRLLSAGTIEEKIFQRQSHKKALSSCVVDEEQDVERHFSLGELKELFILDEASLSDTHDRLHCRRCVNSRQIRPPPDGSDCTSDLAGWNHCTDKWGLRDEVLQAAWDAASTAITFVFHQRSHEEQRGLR

Bcl-2-related protein A1 = target: T4, Bcl-2-related protein A1 (Mus musculus, UniProt Q07440); format: functional;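 further: confirmatory dose–response counterscreen on Bfl-1, used to check hits from a UBC13 polyubiquitin inhibitor campaign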
T4 sequence (Q07440 whole entry): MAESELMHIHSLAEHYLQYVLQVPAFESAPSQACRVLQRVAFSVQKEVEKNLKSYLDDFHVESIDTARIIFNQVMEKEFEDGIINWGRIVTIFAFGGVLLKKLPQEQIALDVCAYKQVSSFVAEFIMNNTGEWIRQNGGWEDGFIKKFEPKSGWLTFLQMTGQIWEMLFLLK

[6] = target: T5, Rac GTPase-activating protein 1 (Homo sapiens, UniProt Q9H0H5); assay: blockers of MgcRacGAP-driven Rac1 GTP hydrolysis – biochemical, ADP Hunter fluorescence, primary and confirmatory, confirmation (AID 624330); format: functional
T5 sequence (Q9H0H5 whole entry): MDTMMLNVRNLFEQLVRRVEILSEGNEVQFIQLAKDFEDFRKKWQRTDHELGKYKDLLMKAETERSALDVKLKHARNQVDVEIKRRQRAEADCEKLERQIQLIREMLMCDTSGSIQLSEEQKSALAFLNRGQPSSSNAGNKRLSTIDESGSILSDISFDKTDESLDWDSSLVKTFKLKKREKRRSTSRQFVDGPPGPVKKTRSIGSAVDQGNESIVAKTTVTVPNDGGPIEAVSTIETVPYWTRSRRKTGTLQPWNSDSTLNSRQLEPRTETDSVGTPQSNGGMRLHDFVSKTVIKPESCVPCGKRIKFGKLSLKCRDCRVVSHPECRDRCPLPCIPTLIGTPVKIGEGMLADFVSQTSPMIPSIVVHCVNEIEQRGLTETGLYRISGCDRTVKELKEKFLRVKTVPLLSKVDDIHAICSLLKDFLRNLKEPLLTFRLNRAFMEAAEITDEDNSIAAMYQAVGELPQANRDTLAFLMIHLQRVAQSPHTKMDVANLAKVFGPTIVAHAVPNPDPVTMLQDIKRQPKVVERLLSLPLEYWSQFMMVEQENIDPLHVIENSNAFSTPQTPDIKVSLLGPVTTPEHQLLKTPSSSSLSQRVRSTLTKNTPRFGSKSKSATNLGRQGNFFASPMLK

[7] = target: T6, Sentrin-specific protease 8 (Homo sapiens, UniProt Q96LD8); format: functional;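 further: luminescence read-out of SENP8 inhibition, dose-response confirmation following an ultra-high-throughput screen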
T6 sequence (Q96LD8 whole entry): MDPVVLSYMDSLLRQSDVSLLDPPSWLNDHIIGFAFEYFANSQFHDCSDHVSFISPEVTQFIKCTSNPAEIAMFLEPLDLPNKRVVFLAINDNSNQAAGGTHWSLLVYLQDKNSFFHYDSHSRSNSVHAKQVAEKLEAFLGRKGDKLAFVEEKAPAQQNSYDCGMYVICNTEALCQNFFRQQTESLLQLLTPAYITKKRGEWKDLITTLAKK

[8] = target: T7, Sentrin-specific protease 7 (Homo sapiens, UniProt Q9BQF6); format: functional;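 further: Luminescence-based dose-response confirmation of ultra-high-throughput screening hits, measuring inhibition of SENP7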
T7 sequence (Q9BQF6 whole entry): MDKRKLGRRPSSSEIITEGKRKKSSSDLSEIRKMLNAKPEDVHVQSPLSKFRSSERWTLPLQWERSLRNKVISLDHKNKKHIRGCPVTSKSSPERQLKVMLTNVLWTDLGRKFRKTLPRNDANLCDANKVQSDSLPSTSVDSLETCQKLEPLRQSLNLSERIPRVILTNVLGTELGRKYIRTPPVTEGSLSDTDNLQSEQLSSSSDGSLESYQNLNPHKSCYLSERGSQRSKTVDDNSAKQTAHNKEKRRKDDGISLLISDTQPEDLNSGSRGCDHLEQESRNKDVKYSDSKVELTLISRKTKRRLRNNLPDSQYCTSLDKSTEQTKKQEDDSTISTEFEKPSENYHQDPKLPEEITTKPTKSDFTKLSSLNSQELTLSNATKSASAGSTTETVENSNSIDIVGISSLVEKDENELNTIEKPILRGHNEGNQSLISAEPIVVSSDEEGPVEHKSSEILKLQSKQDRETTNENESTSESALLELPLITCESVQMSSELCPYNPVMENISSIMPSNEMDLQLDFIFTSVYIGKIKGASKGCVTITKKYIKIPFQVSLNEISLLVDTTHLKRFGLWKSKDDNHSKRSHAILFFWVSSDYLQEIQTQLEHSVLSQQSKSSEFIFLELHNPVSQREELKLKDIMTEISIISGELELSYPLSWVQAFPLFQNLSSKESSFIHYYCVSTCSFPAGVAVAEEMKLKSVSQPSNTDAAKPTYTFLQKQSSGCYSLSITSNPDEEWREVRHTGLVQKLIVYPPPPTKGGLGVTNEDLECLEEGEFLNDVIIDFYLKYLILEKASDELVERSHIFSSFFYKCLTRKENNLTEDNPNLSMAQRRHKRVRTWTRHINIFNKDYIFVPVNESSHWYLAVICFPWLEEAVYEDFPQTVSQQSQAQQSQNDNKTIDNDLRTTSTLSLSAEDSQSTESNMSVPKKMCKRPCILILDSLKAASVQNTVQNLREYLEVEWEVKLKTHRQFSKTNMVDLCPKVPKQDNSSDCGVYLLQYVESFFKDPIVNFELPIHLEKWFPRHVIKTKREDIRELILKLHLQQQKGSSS

[9] = target: T8, Sentrin-specific protease 6 (Homo sapiens, UniProt Q9GZR1); format: functional;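 further: Luminescence-based dose-response confirmatory assay of SENP6 inhibition, following up an ultra-high-throughput screen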
T8 sequence (Q9GZR1 whole entry): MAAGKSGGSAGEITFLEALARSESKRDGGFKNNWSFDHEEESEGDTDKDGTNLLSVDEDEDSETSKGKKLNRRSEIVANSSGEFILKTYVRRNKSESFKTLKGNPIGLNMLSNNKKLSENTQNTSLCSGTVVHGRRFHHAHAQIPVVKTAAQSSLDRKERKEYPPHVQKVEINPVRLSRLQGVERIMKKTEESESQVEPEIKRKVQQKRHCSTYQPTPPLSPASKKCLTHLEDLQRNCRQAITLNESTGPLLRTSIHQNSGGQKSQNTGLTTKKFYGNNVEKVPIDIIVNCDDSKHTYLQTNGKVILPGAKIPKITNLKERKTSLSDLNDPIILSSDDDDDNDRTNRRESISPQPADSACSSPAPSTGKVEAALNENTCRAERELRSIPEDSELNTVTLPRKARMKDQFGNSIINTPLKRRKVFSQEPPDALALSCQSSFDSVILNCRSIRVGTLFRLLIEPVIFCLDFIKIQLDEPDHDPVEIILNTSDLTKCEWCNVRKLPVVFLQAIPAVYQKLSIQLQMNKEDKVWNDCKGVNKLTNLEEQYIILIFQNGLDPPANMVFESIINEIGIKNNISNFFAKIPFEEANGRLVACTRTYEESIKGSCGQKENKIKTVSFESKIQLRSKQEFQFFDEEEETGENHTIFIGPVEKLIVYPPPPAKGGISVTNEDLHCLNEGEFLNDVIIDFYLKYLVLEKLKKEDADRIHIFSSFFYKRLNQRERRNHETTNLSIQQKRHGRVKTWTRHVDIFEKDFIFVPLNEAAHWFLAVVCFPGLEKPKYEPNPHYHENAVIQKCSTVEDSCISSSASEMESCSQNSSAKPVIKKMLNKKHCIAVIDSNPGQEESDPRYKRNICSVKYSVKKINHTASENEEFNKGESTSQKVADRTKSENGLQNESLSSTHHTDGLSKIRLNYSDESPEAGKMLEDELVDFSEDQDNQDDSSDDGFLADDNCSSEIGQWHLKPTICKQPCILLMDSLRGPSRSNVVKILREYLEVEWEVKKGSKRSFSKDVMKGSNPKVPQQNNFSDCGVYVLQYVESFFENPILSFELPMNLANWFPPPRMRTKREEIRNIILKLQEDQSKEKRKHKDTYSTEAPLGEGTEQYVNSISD

Caspase-3 = target: T9, Caspase-3 (Homo sapiens, UniProt P42574); format: functional;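 further: Dose-response selectivity test against caspase-3 for candidate inhibitors of sentrin-specific proteases (SENPs)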
T9 sequence (P42574 whole entry): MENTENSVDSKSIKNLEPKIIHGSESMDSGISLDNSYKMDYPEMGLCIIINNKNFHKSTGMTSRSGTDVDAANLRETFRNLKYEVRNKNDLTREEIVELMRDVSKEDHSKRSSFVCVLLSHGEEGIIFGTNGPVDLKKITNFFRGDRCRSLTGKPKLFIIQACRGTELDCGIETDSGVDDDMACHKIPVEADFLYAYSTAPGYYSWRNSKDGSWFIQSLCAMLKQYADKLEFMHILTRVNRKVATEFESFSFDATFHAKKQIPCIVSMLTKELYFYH

Sequence of Beta-2 adrenergic receptor (P07550 whole entry): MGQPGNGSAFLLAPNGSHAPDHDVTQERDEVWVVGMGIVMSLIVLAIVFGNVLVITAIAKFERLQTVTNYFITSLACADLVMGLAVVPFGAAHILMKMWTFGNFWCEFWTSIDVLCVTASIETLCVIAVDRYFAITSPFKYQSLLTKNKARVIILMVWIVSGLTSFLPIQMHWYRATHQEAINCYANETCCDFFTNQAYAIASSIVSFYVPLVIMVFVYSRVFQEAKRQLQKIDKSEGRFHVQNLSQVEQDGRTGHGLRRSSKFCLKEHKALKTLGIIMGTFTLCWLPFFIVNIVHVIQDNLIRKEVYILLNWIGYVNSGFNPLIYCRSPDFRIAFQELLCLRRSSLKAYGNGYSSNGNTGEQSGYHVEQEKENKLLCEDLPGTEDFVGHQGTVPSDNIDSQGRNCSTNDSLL

Row | Structure (SMILES) | IC50 [1] | IC50 [2] | IC50 (Vero) | EC50 [3] | IC50 [4] | AC50 [5] | IC50 (Bcl-2-related protein A1) | IC50 [6] | IC50 [7] | IC50 [8] | IC50 [9] | IC50 (Caspase-3)
1 | COc1cc2nc(N3CCNCC3)nc(N)c2cc1OC | 1.5 µM (active) | 0.873 µM (active) | 22.4 µM (active) | 8.61 µM (inactive) | 31.5 µM (active) | 1.49 µM (active) | 11.1 µM (active) | 63.1 µM (active) | – | – | – | –
2 | O=C(CCc1ccccc1)c1ccc2c(c1)OCCCO2 | – | – | – | – | – | – | – | – | 27.3 µM (active) | 9.59 µM (active) | 32.8 µM (active) | 28.9 µM (active)
3 | Cc1cc(N/N=C/c2ccc3c(c2)OCO3)nc2ccccc12 | – | – | – | – | – | – | – | – | 21.9 µM (active) | 4.64 µM (active) | 17.6 µM (active) | 27.6 µM (active)
